*: point of attachment. Mca = COc1ccc2c(CC(=O)*)cc(=O)oc2c1
Test system: exiguolysin
Assay: Km determination of the fluorogenic substrate (Michaelis-Menten)
Format: biochemical, Exiguobacterium oxidotolerans
Details: 25 mM Tris, 2.5 mM CaCl2, pH 7.0; substrate 0-200 µM; exiguolysin 5 units/well
Procedure: The inhibition of protease activity was screened using a 20 × 20 library of N-alpha dipeptide mercaptoamide inhibitors as previously described by Cathcart et al., and the half-maximal inhibitory constant (Ki) values were determined. In order to determine Michaelis–Menten constant, Km, of the fluorogenic substrate, exiguolysin (previously purified by HIC, final concentration 5 units/well) was added to wells of a 96-well black microtitre plate (Nunc); the volume was adjusted to 75 µL in assay buffer (25 mM Tris, 2.5 mM CaCl2, pH 7.0), and fluorogenic substrate (25 µL) was added at concentrations of 0, 1, 10, 25, 50, 100 and 200 µM. Time-dependent hydrolysis of the fluorogenic substrate was measured (excitation/emission […] nm) every 30 s for 30 min. The Km is determined using the Michealis–Menten equation, by plotting the rate of substrate hydrolysis against substrate concentration.

Mca-Lys-Pro-Leu-Gly-Leu-Dap-(Dnp)-Ala-Arg-NH2 (Mca-KPLGL-{Dap(Dnp)-Ala-Arg-NH2}) [fluorogenic substrate, fluorogenic matrix metalloprotease (MMP) substrate]
Km: 14.2 µM
